Data from patent publication US20260234150A1, “COMPOUND FOR INHIBITING NLRP3, PREPARATION METHOD, AND USE” (DOVETREE MEDICINES UNUS, INC., priority 2023, published 2026).
Like-named read-outs stand apart in the source and are kept apart here.

What was measured:
[1] = tested on: IL-1β secretion of THP-1 cells; assay: Effect of NLRP3 inhibitor on IL-1β secretion of THP-1 cells (AlphaLISA); assay type: cell-based; details: Homo sapiens; PMA, LPS and Nigericin stimulated THP-1 cells, IL-1β in supernatant; read-out: IC50 (nM), THP-1 cells to detect NLRP3 inhibitors
CYP2D6 = biological target: T1, CYP2D6 (Homo sapiens, UniProt P10635); assay: CYP450 enzyme inhibition in human liver microsomes, CYP2D6; assay type: in vitro ADME; details: substrate Dextromethorphan, read-out: Inhibitory activity IC50 (μM) CYP2D6
T1 construct: 0.05 mg/mL liver microsome (BioIVT, IHG) phosphate buffer solution; tissue BioIVT IHG; host or cells: human liver microsomes
T1 sequence (P10635 whole entry): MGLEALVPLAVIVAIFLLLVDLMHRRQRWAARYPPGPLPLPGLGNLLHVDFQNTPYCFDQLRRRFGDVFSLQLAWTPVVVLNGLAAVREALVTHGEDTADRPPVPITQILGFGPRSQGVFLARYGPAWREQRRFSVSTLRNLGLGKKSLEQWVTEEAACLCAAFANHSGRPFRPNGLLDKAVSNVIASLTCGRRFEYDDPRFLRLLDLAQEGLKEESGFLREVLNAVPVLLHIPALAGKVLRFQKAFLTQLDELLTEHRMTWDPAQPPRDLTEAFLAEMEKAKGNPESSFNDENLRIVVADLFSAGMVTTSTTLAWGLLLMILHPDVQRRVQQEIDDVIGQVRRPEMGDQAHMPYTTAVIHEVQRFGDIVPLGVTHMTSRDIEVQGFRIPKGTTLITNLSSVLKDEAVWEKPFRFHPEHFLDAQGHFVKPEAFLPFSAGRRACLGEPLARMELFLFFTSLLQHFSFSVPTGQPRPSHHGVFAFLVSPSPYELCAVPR
Method: (§1) This experiment incubates the compound, liver microsomes and different CYP subtype enzyme substrates in a 37° C. water bath to measure the amount of substrate metabolites produced and evaluate the inhibitory effect of the compound of the present disclosure on CYP enzymes based on the IC50 value.
(§2) i. The compound was diluted to 0, 0.02 mM, 0.06 mM, 0.2 mM, 0.6 mM, 2 mM and 6 mM concentrations with DMSO (Aladdin, catalog number: D103273-500 ml).
(§3) ii. The enzyme substrate solutions of each CYP subtype were prepared by phosphate buffer (sigma: V900050-500G).
(§4) iii. Sample incubation. […] After centrifugation at 4000 rpm and 4° C. for 40 min, the supernatant was diluted with pure water according to the response of the substrate metabolites and then detected by UPLC-MS/MS (Sciex, Q-Trap 4500). […]
(§5) The inhibitory effect of the compound on each P450 enzyme in human liver microsomes was calculated as the percentage of reduced metabolite formation compared with the non-inhibitory control (i.e., blank DMSO). The IC50 value for each P450 enzyme in human liver microsomes was calculated using the logarithm of the remaining activity and the inhibitor concentration using Graphpad Prism software. […]

CYP3A4 = biological target: T2, CYP3A4 (Homo sapiens, UniProt P08684); assay: CYP450 enzyme inhibition in human liver microsomes, CYP3A4; assay type: in vitro ADME
T2 construct: 0.05 mg/mL liver microsome (BioIVT, IHG) phosphate buffer solution; tissue BioIVT IHG; host or cells: human liver microsomes
T2 sequence (P08684 whole entry): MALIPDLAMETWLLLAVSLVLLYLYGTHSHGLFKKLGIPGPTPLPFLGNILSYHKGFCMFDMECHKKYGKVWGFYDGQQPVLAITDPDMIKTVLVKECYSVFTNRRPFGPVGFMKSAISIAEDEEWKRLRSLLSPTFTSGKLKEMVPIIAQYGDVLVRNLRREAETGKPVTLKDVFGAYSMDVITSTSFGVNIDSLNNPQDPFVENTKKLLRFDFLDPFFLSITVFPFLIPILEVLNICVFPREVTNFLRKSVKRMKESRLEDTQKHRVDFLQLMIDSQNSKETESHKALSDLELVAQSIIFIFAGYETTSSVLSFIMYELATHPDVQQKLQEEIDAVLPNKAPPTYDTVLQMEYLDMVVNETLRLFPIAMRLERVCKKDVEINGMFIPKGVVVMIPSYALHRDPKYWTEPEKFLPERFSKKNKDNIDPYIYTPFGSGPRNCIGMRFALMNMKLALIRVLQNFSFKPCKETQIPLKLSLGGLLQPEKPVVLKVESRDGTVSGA
Method: as §1, §2, §3, §4, §5

- IC50 [1]: < 50 nM
- IC50 (CYP2D6): > 30 µM
- IC50 (CYP3A4; substrate Midazolam, read-out: Inhibitory activity IC50 (μM) CYP3A4-M): 28.7 µM
- IC50 (CYP3A4; substrate Testosterone, read-out: Inhibitory activity IC50 (μM) CYP3A4-T): > 30 µM
SMILES: CC(=O)N1CCOC[C@H]1CNc1nc2nc(-c3c(C)cc(C(F)(F)F)cc3O)ccc2o1 [Compound 111]
